According to PubChem BioAssay AID248 (DTP/NCI, 2004):
Several values for one entry are separate records, joined by “and”; a condition that tells them apart may be missing. Identical values can stand only once. Toxic doses and inconclusive results are not listed. Cut-off read from the data, not from the text of the source: active = T/C of 150% or more; inactive = T/C below 125%.

System: L1210 leukemia ip in BDF1 mice, survival T/C
Assay: NCI In Vivo Anticancer Drug Screen. Data for tumor model L1210 Leukemia (intraperitoneal) in B6D2F1 (BDF1) mice
Details: endpoint: mean survival time, higher = longer survival
Outline: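 Transplanted-tumor mice were given test agent; controls received vehicle only. Survival readings from the two groups were divided (treated over control).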

[1] = dose: 50.0 mg/kg/injection, schedule: Q01DX001 (ip), vehicle: saline
[2] = dose: 100.0 mg/kg/injection, schedule: Q01DX001 (ip), vehicle: saline
[3] = dose: 200.0 mg/kg/injection, schedule: Q01DX001 (ip), vehicle: saline
[4] = dose: 400.0 mg/kg/injection, schedule: Q01DX001 (ip), vehicle: saline
[5] = dose: 100.0 mg/kg/injection, schedule: Q01DX009 (ip), vehicle: saline with Tween-80
[6] = dose: 200.0 mg/kg/injection, schedule: Q01DX009 (ip), vehicle: saline with Tween-80
[7] = dose: 400.0 mg/kg/injection, schedule: Q01DX009 (ip), vehicle: saline with Tween-80
[8] = dose: 6.25 mg/kg/injection, schedule: Q01DX009 (ip), vehicle: saline
[9] = dose: 100.0 mg/kg/injection, schedule: Q01DX009 (ip), vehicle: Klucel (hydroxypropylcellulose) (HPC)
[10] = dose: 100.0 mg/kg/injection, schedule: Q04DX003 (ip), vehicle: Klucel (hydroxypropylcellulose) (HPC)
[11] = dose: 200.0 mg/kg/injection, schedule: Q01DX009 (ip), vehicle: Klucel (hydroxypropylcellulose) (HPC)
[12] = dose: 200.0 mg/kg/injection, schedule: Q04DX003 (ip), vehicle: Klucel (hydroxypropylcellulose) (HPC)
[13] = dose: 400.0 mg/kg/injection, schedule: Q04DX003 (ip), vehicle: Klucel (hydroxypropylcellulose) (HPC)
[14] = dose: 400.0 mg/kg/injection, schedule: Q01DX009 (ip), vehicle: Klucel (hydroxypropylcellulose) (HPC)
[15] = dose: 50.0 mg/kg/injection, schedule: Q01DX009 (ip), vehicle: water

Measured: T/C

CNC(=O)NCc1cccnc1
inactive: dose: 100.0 mg/kg/injection, schedule: Q01DX009 (ip), vehicle: saline 111 % of control | dose: 200.0 mg/kg/injection, schedule: Q01DX009 (ip), vehicle: saline 103 % of control | dose: 400.0 mg/kg/injection, schedule: Q01DX009 (ip), vehicle: saline 114 % of control

NC(CC1C=CC=CC1)C(=O)O (centres undefined)
inactive: [1] 108 % of control | [2] 102 % of control | [3] 98 % of control | [4] 96 % of control

CCOP(N)(=O)SCC (centres undefined)
inactive: dose: 5.0 mg/kg/injection, schedule: Q01DX001 (ip), vehicle: saline 110 % of control

Cc1ccc(Cl)cc1NC(=O)OCCCl
inactive: [5] 95 % of control | dose: 100.0 mg/kg/injection, schedule: Q04DX003 (ip), vehicle: saline 97 % of control | [6] 91 % of control | dose: 200.0 mg/kg/injection, schedule: Q04DX003 (ip), vehicle: saline 100 % of control | [7] 91 % of control | dose: 400.0 mg/kg/injection, schedule: Q04DX003 (ip), vehicle: saline 95 % of control

c1ccc2c(c1)[nH]c1c2c[n+]2c3c(cccc13)CCC2
inactive: dose: 3.13 mg/kg/injection, schedule: Q01DX009 (ip), vehicle: saline 105 % of control | [8] 105 % of control | dose: 12.5 mg/kg/injection, schedule: Q01DX009 (ip), vehicle: saline 105 % of control

Cc1ccc(OCCC(=O)O)cc1
inactive: dose: 100.0 mg/kg/injection, schedule: Q04DX002 (ip), vehicle: saline 108 % of control | dose: 200.0 mg/kg/injection, schedule: Q04DX002 (ip), vehicle: saline 101 % of control | dose: 400.0 mg/kg/injection, schedule: Q04DX002 (ip), vehicle: saline 108 % of control

COC(=O)c1ccc(N)cc1O
inactive: dose: 25.0 mg/kg/injection, schedule: Q01DX009 (ip), vehicle: Klucel (hydroxypropylcellulose) (HPC) 101 % of control | dose: 50.0 mg/kg/injection, schedule: Q01DX009 (ip), vehicle: Klucel (hydroxypropylcellulose) (HPC) 106 % of control | [9] 99 % of control and 101 % of control | [10] 98 % of control | [11] 105 % of control | [12] 102 % of control | [13] 93 % of control

CCc1ccccc1NC(=O)SCc1ccccc1
inactive: dose: 100.0 mg/kg/injection, schedule: Q01DX001 (ip), vehicle: Klucel (hydroxypropylcellulose) (HPC) 91 % of control | [9] 100 % of control and 90 % of control | dose: 100.0 mg/kg/injection, schedule: Q04DX002 (ip), vehicle: Klucel (hydroxypropylcellulose) (HPC) 95 % of control and 109 % of control | [10] 87 % of control | dose: 200.0 mg/kg/injection, schedule: Q01DX001 (ip), vehicle: Klucel (hydroxypropylcellulose) (HPC) 94 % of control | [11] 90 % of control | dose: 200.0 mg/kg/injection, schedule: Q04DX002 (ip), vehicle: Klucel (hydroxypropylcellulose) (HPC) 97 % of control and 102 % of control | [12] 102 % of control | dose: 400.0 mg/kg/injection, schedule: Q01DX001 (ip), vehicle: Klucel (hydroxypropylcellulose) (HPC) 89 % of control | [14] 108 % of control and 90 % of control | dose: 400.0 mg/kg/injection, schedule: Q04DX002 (ip), vehicle: Klucel (hydroxypropylcellulose) (HPC) 92 % of control and 105 % of control | [13] 98 % of control

CCSCC(C)O (centres undefined)
inactive: dose: 100.0 mg/kg/injection, schedule: Q04DX002 (ip), vehicle: saline with Tween-80 100 % of control | dose: 200.0 mg/kg/injection, schedule: Q04DX002 (ip), vehicle: saline with Tween-80 100 % of control | dose: 400.0 mg/kg/injection, schedule: Q04DX002 (ip), vehicle: saline with Tween-80 94 % of control

O=C1C=CC(=O)c2c(O)c(CBr)c(CBr)c(O)c21
inactive: dose: 6.25 mg/kg/injection, schedule: Q01DX009 (ip), vehicle: water 101 % of control | dose: 12.5 mg/kg/injection, schedule: Q01DX009 (ip), vehicle: water 92 % of control | dose: 25.0 mg/kg/injection, schedule: Q01DX009 (ip), vehicle: water 93 % of control and 94 % of control | [15] 89 % of control

C[N+](C)(C)c1ccc(N=Nc2ccccn2)cc1
inactive: [1] 113 % of control

CCC(CC)(CC)C(OC(=O)c1ccccc1C(=O)O)c1ccccc1 (centres undefined)
inactive: [1] 95 % of control | [2] 95 % of control | [3] 97 % of control | [4] 88 % of control

CC(=O)CC(C[N+](=O)[O-])c1ccccc1 (centres undefined)
inactive: [9] 100 % of control | [11] 100 % of control | [14] 100 % of control

COc1cc(N)c2ncccc2c1
inactive: dose: 15.0 mg/kg/injection, schedule: Q01DX001 (ip), vehicle: saline 98 % of control | dose: 30.0 mg/kg/injection, schedule: Q01DX001 (ip), vehicle: saline 97 % of control | dose: 75.0 mg/kg/injection, schedule: Q01DX001 (ip), vehicle: carboxymethylcellulose (CMC) 96 % of control

CCCN=C(N)N=C(N)N
inactive: [15] 108 % of control | dose: 100.0 mg/kg/injection, schedule: Q01DX001 (ip), vehicle: water 102 % of control | dose: 100.0 mg/kg/injection, schedule: Q01DX009 (ip), vehicle: water 95 % of control | dose: 100.0 mg/kg/injection, schedule: Q04DX003 (ip), vehicle: water 104 % of control | dose: 200.0 mg/kg/injection, schedule: Q01DX001 (ip), vehicle: water 102 % of control | dose: 200.0 mg/kg/injection, schedule: Q04DX003 (ip), vehicle: water 102 % of control | dose: 400.0 mg/kg/injection, schedule: Q01DX001 (ip), vehicle: water 102 % of control

N/N=C\C(=N/N)C(O)C(O)C(O)CO (centres undefined)
inactive: dose: 25.0 mg/kg/injection, schedule: Q01DX001 (ip), vehicle: saline with Tween-80 93 % of control | dose: 50.0 mg/kg/injection, schedule: Q01DX001 (ip), vehicle: saline with Tween-80 90 % of control | dose: 100.0 mg/kg/injection, schedule: Q01DX001 (ip), vehicle: saline with Tween-80 87 % of control

O=[N+]([O-])c1ccc(OCc2ccccc2)c([N+](=O)[O-])c1
inactive: [5] 90 % of control | dose: 100.0 mg/kg/injection, schedule: Q04DX003 (ip), vehicle: saline with Tween-80 90 % of control | [6] 87 % of control | dose: 200.0 mg/kg/injection, schedule: Q04DX003 (ip), vehicle: saline with Tween-80 90 % of control | [7] 87 % of control | dose: 400.0 mg/kg/injection, schedule: Q04DX003 (ip), vehicle: saline with Tween-80 89 % of control

CC(C)(C)OC(=O)NNC(=O)c1ccc([N+](=O)[O-])cc1
inactive: dose: 4.12 mg/kg/injection, schedule: Q01DX009 (ip), vehicle: Klucel (hydroxypropylcellulose) (HPC) 118 % of control | dose: 4.12 mg/kg/injection, schedule: Q01DX009 (ip), vehicle: saline 92 % of control | dose: 6.25 mg/kg/injection, schedule: Q01DX009 (ip), vehicle: Klucel (hydroxypropylcellulose) (HPC) 124 % of control | [8] 96 % of control | dose: 9.37 mg/kg/injection, schedule: Q01DX009 (ip), vehicle: Klucel (hydroxypropylcellulose) (HPC) 100 % of control | dose: 9.37 mg/kg/injection, schedule: Q01DX009 (ip), vehicle: saline 94 % of control | dose: 35.0 mg/kg/injection, schedule: Q01DX009 (ip), vehicle: saline 121 % of control | dose: 50.0 mg/kg/injection, schedule: Q04DX003 (ip), vehicle: Klucel (hydroxypropylcellulose) (HPC) 96 % of control | dose: 55.0 mg/kg/injection, schedule: Q01DX009 (ip), vehicle: saline 102 % of control | dose: 80.0 mg/kg/injection, schedule: Q01DX009 (ip), vehicle: saline 105 % of control | dose: 100.0 mg/kg/injection, schedule: Q01DX001 (ip), vehicle: other 102 % of control | [10] 93 % of control | dose: 120.0 mg/kg/injection, schedule: Q01DX009 (ip), vehicle: Klucel (hydroxypropylcellulose) (HPC) 92 % of control | dose: 180.0 mg/kg/injection, schedule: Q01DX009 (ip), vehicle: Klucel (hydroxypropylcellulose) (HPC) 97 % of control | dose: 200.0 mg/kg/injection, schedule: Q01DX001 (ip), vehicle: other 95 % of control | [12] 91 % of control
